US12655116B2, “Substituted isophthalic acid diamides” (Bayer Aktiengesellschaft, priority 2020, dated 2026)

How the values were obtained:
ECHCG [1] = test: Pre-emergence herbicidal action against ECHCG; type: in vivo, Echinochloa crus-galli; settings: 80 g/ha
Summary of the method: (§1)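 Herbicidal effect was assessed 3 weeks after treatment by visual comparison with untreated controls, 100% denoting dead plants. Aqueous WP or EC preparations had been applied at 600 to 800 l/ha with 0.2% wetting agent to the soil covering freshly sown seeds.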

AMARE [2] = test: Post-emergence herbicidal action against AMARE; type: in vivo, Amaranthus retroflexus; settings: 20 g/ha, visual assessment about 3 weeks after treatment, 100% = plants have died, 0% = like control plants; for pest or weed control at 20 g/ha: Amaranthus retroflexus, 504 h
Summary of the method: (§2)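 Post-emergence greenhouse test; one-leaf stage, 2–3 wk post-sowing, sandy loam. Foliar spray of WP/EC in water, 600–800 l/ha, +0.2% wetting agent. Visual % action at ~3 wk vs untreated (100% = plants dead).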

ABUTH [3] = test: Post-emergence herbicidal action against ABUTH; type: in vivo, Abutilon theophrasti; settings: Abutilon theophrasti, 504 h, visual assessment about 3 weeks after treatment vs untreated controls
Summary of the method: as §2

ALOMY [4] = test: Post-emergence herbicidal action against ALOMY; type: in vivo, Alopecurus myosuroides; settings: Alopecurus myosuroides, 504 h, visual assessment about 3 weeks after treatment vs untreated controls
Summary of the method: as §2

AMARE [5] = test: Pre-emergence herbicidal action against AMARE; type: in vivo, Amaranthus retroflexus; settings: for pest or weed control at 20 g/ha / pest or weed control at 80 g/ha: Amaranthus retroflexus, 504 h
Summary of the method: as §1

VERPE [6] = test: Post-emergence herbicidal action against VERPE; type: in vivo, Veronica persica; settings: Veronica persica, 504 h
Summary of the method: as §2

VERPE [7] = test: Pre-emergence herbicidal action against VERPE; type: in vivo, Veronica persica; settings: Veronica persica, 504 h; for pest or weed control at 80 g/ha: dosage 80 g/ha
Summary of the method: as §1

VIOTR [8] = test: Pre-emergence herbicidal action against VIOTR; type: in vivo, Viola tricolor
Summary of the method: as §1

POLCO = test: Pre-emergence herbicidal action against POLCO; type: in vivo, Polygonum convolvulus; settings: dosage 80 g/ha; for pest or weed control at 80 g/ha: Fallopia convolvulus, 504 h
Description: Seeds of monocotyledonous and dicotyledonous weed plants and crop plants are laid out in sandy loam soil in wood-fiber pots and covered with soil. The compounds of the invention, formulated in the form of wettable powders (WP) or as emulsion concentrates (EC), are then applied to the surface of the covering soil in the form of an aqueous suspension or emulsion at a water application rate equivalent to 600 to 800 l/ha, with addition of 0.2% wetting agent. After the treatment, the pots are placed in a greenhouse and kept under good growth conditions for the trial plants. The damage to the test plants is scored visually after a test period of 3 weeks by comparison with untreated controls (herbicidal activity in percent (%): 100% activity=the plants have died, 0% activity=like control plants). […] The tables below illustrate, in an illustrative manner, the post-emergence herbicidal action of the compounds of the invention, the herbicidal activity being stated in percent.

SETVI [9] = test: Post-emergence herbicidal action against SETVI; type: in vivo, Setaria viridis; settings: Setaria viridis, 504 h
Summary of the method: as §2

ALOMY [10] = test: Pre-emergence herbicidal action against ALOMY; type: in vivo, Alopecurus myosuroides; settings: 80 g/ha, pre-emergence, scored visually after 3 weeks vs untreated controls (100% = plants have died, 0% = like control plants)
Summary of the method: as §1

MATIN [11] = test: Post-emergence herbicidal action against MATIN; type: in vivo, Matricaria inodora; settings: Tripleurospermum inodorum, 504 h
Summary of the method: as §2

PHBPU [12] = test: Post-emergence herbicidal action against PHBPU; type: in vivo, Pharbitis purpurea
Summary of the method: as §2

ABUTH [13] = test: Pre-emergence herbicidal action against ABUTH; type: in vivo, Abutilon theophrasti; settings: Abutilon theophrasti, 504 h; for pest or weed control at 80 g/ha: scored visually after 3 weeks vs untreated controls (100% = plants have died, 0% = like control plants); for pest or weed control at 20 g/ha: dosage 20 g/ha, scored visually after 3 weeks vs untreated controls, 100% = plants have died, 0% = like control plants, read-out: Pre-emergence action against ABUTH (herbicidal activity in percent)
Summary of the method: as §1

AVEFA = test: Pre-emergence herbicidal action against AVEFA; type: in vivo, Avena fatua; settings: Avena fatua, 504 h, pre-emergence
Summary of the method: as §1

MATIN [14] = test: Pre-emergence herbicidal action against MATIN; type: in vivo, Matricaria inodora; settings: for pest or weed control at 20 g/ha / pest or weed control at 80 g/ha: Tripleurospermum inodorum, 504 h
Summary of the method: as §1

VIOTR [15] = test: Post-emergence herbicidal action against VIOTR; type: in vivo, Viola tricolor; settings: Viola tricolor, 504 h
Summary of the method: as §2

SETVI [16] = test: Pre-emergence herbicidal action against SETVI; type: in vivo, Setaria viridis
Summary of the method: as §1

ECHCG [17] = test: Post-emergence herbicidal action against ECHCG; type: in vivo, Echinochloa crus-galli
Summary of the method: as §2

PHBPU [18] = test: Pre-emergence herbicidal action against PHBPU; type: in vivo, Pharbitis purpurea; settings: dosage 80 g/ha
Summary of the method: as §1

DIGSA = test: Pre-emergence herbicidal action against DIGSA; type: in vivo, Digitaria sanguinalis; settings: dosage 80 g/ha
Summary of the method: as §1

[19] = 20 g/ha, scored visually after 3 weeks vs untreated controls, 100% = plants have died, 0% = like control plants
[20] = 80 g/ha, scored visually after 3 weeks vs untreated controls, 100% = plants have died, 0% = like control plants

Cc1c(C(=O)Nc2nnnn2C)ccc(C(F)F)c1C(=O)NC(C)C [Example 1-346]
pest or weed control at 80 g/ha (ECHCG [1]; Echinochloa crus-galli, 504 h): 90%
pest or weed control at 20 g/ha (AMARE [2]): 100%
pest or weed control at 5 g/ha (ABUTH [3]; dosage 5 g/ha): 80%
pest or weed control at 20 g/ha (ABUTH [3]; dosage 20 g/ha): 100%
pest or weed control at 5 g/ha (ALOMY [4]; dosage 5 g/ha): 80%
pest or weed control at 20 g/ha (ALOMY [4]; dosage 20 g/ha): 90%
pest or weed control at 20 g/ha (AMARE [5]; [19]): 100%
pest or weed control at 80 g/ha (AMARE [5]; [20]): 100%
pest or weed control at 5 g/ha (VERPE [6]; 5 g/ha): 80%
pest or weed control at 20 g/ha (VERPE [6]; 20 g/ha): 80%
pest or weed control at 80 g/ha (VERPE [7]): 80%
pest or weed control at 20 g/ha (VIOTR [8]; Viola tricolor, 504 h, dosage 20 g/ha): 80%
pest or weed control at 80 g/ha (VIOTR [8]; Viola tricolor, 504 h, dosage 80 g/ha): 100%
pest or weed control at 80 g/ha (POLCO): 80%
pest or weed control at 5 g/ha (SETVI [9]; dosage 5 g/ha): 100%
pest or weed control at 20 g/ha (SETVI [9]; dosage 20 g/ha): 100%
pest or weed control at 80 g/ha (ALOMY [10]; Alopecurus myosuroides, 504 h): 90%
pest or weed control at 5 g/ha (MATIN [11]; dosage 5 g/ha): 80%
pest or weed control at 20 g/ha (MATIN [11]; dosage 20 g/ha): 90%
pest or weed control at 5 g/ha (PHBPU [12]; Ipomoea purpurea, 504 h, dosage 5 g/ha): 80%
pest or weed control at 20 g/ha (PHBPU [12]; Ipomoea purpurea, 504 h, dosage 20 g/ha): 90%
pest or weed control at 80 g/ha (ABUTH [13]): 100%
pest or weed control at 20 g/ha (ABUTH [13]): 90%
pest or weed control at 80 g/ha (AVEFA; 80 g/ha): 80%
pest or weed control at 20 g/ha (AVEFA; 20 g/ha, scored visually after 3 weeks, 100% = plants have died, 0% = like control plants): 80%
pest or weed control at 20 g/ha (MATIN [14]; dosage 20 g/ha): 90%
pest or weed control at 80 g/ha (MATIN [14]; dosage 80 g/ha): 100%
pest or weed control at 5 g/ha (VIOTR [15]; 5 g/ha): 90%
pest or weed control at 20 g/ha (VIOTR [15]; 20 g/ha): 100%
pest or weed control at 20 g/ha (SETVI [16]; Setaria viridis, 504 h, dosage 20 g/ha): 100%
pest or weed control at 80 g/ha (SETVI [16]; Setaria viridis, 504 h, dosage 80 g/ha): 100%
pest or weed control at 5 g/ha (ECHCG [17]; Echinochloa crus-galli, 504 h, dosage 5 g/ha): 80%
pest or weed control at 20 g/ha (ECHCG [17]; Echinochloa crus-galli, 504 h, dosage 20 g/ha): 90%

Cn1nnnc1NC(=O)c1ccc(C(F)F)c(C(=O)Nc2ccccc2)c1Cl [Example 1-161]
pest or weed control at 80 g/ha (PHBPU [18]; Ipomoea purpurea, 504 h): 80%
pest or weed control at 20 g/ha (AMARE [2]): 90%
pest or weed control at 20 g/ha (AMARE [5]; [19]): 100%
pest or weed control at 80 g/ha (AMARE [5]; [20]): 100%
pest or weed control at 20 g/ha (VERPE [7]; dosage 20 g/ha): 80%
pest or weed control at 80 g/ha (VERPE [7]): 90%
pest or weed control at 80 g/ha (POLCO): 80%
pest or weed control at 80 g/ha (ABUTH [13]): 90%
pest or weed control at 20 g/ha (ABUTH [13]): 80%
pest or weed control at 20 g/ha (MATIN [14]; dosage 20 g/ha): 90%
pest or weed control at 80 g/ha (MATIN [14]; dosage 80 g/ha): 100%

CCn1nnnc1NC(=O)c1ccc(C(F)(F)F)c(C(=O)NCC2CCCO2)c1Cl (centres unmarked) [Example 2-141]
Pre-emergence action against ECHCG in % (ECHCG [1]): 80%
Pre-emergence action against PHBPU in % (PHBPU [18]): 80%
Post-emergence action at 20 g/ha against AMARE in % (AMARE [2]): 80%
Pre-emergence action against AMARE in % (AMARE [5]; [19]): 100%
Pre-emergence action against AMARE in % (AMARE [5]; 80 g/ha, scored visually after 3 weeks vs untreated controls (100% = plants have died, 0% = like control plants)): 100%
Pre-emergence action against VIOTR in % (VIOTR [8]; dosage 80 g/ha): 90%
Pre-emergence action against POLCO in % (POLCO): 80%
Pre-emergence action against ALOMY (herbicidal activity) (ALOMY [10]): 90%
Post-emergence action against PHBPU in % (PHBPU [12]; dosage 20 g/ha): 80%
Pre-emergence action against DIGSA in % (DIGSA): 90%
Pre-emergence action against MATIN in % (MATIN [14]; dosage 20 g/ha): 80%
Pre-emergence action against MATIN in % (MATIN [14]; dosage 80 g/ha): 90%
Pre-emergence action against SETVI in % (SETVI [16]; dosage 20 g/ha): 90%
Pre-emergence action against SETVI in % (SETVI [16]; dosage 80 g/ha): 100%
Post-emergence action against ECHCG in % (ECHCG [17]; dosage 20 g/ha): 80%
